Source: patent US6475991B2, “Use of α-alkylglucosides and α-alkylglucoside esters as anti-microbial an agents” (Ulice, priority 1996, dated 2002)

Key:
Type in all cases: cell-based
[1] = system: Staphylococcus aureus, Pseudomonas aeruginosa, Escherichia coli; experiment: Preservative efficacy test (Pharmacopée Française), bactericidal effect
Experimental: (§1) The inventors thus tested the bactericidal and/or fungicidal activity of α-alkylglucoside and α-alkylglucoside ester type compounds to determine the conditions, in particular the concentrations, under which said compounds have to be used for the desired activities to be obtained. The results of these tests were analysed in accordance with the “Pharmacopée Françcaise” which describes a methodology for monitoring the efficacy of antimicrobial preservation agents in pharmaceutical preparations and establishes minimum efficacy criteria as a function of the administration routes of a medicine. Thus specific criteria are fixed for topical patent medicines which can be considered to be close to cosmetic products in their conception. The recommended and significant criteria for bactericidal and/or fungicidal activity of a product are:
for a bactericidal effect (Staphylococcus aureus, Pseudomonas aeruginosa, Escherichia coli):
reduction of 3 logarithmic units in 14 days with respect to the initial population;
no increase in microbial growth after 14 days and up to the 28th day, when the test is stopped;
(§2) In order to facilitate visualisation of the bactericidal or fungicidal effect of the tested compounds, the results obtained were transcribed into the graphical forms of FIG. 5 which show the reduction in the number of germs in logarithmic units, over time (1 day, 7 days, 14 days, 21 days, 28 days).

[2] = system: Candida albicans, Aspergillus niger; experiment: Preservative efficacy test (Pharmacopée Française), fungicidal effect (yeasts and moulds); conditions: concentrations of 1% to 3%
Experimental: as §1
(§3) for a fungicidal effect (yeasts and moulds) (Candida albicans, Aspergillus niger):
(§4) reduction of one logarithmic unit in 14 days with respect to the initial population;
(§5) no increase in microbial growth after 14 days and up to the 28th day, when the test is stopped.
as §2

Aspergillus niger = experiment: Preservative efficacy test (Pharmacopée Française), fungicidal effect on Aspergillus niger; conditions: concentration of 5%
Experimental: as §1, §3, §4, §5, §2

**Q.** Which results are given for `CCCCO[C@H]1O[C@H](CO)[C@@H](O)[C@H](O)[C@H]1O` [α-BG, α-butylglucoside]?
**A.** compliance with bactericidal standards of the Pharmacopée Française ([1]; concentrations above 1%): corresponds to the bactericidal standards; logarithmic reduction (bactericidal effect) ([1]; concentrations above 1% (1% to 5%), after 14 days): more than 3 logarithmic units; increase in the number of strains after 14 days ([1]; concentrations above 1%, after 14 days): no subsequent increase in the number of strains; reduction in the number of germs ([1]; concentrations of less than 0.8%): small reduction in the number of germs; compliance with fungicidal standards [2]: satisfy the fungicidal standards; fungicidal activity on Aspergillus niger at 5% versus lower concentrations (Aspergillus niger): less active than at lower concentrations
